Assay results as given in US11923581B2, “Aqueous redox flow battery electrolytes with high chemical and electrochemical stability, high water solubility, low membrane permeability” (President and Fellows of Harvard College, priority 2016, dated 2024).

Assays:
[1] = Cyclic voltammetry, reduction potential; format: physicochemical
[2] = physchem; conditions: 25 °C, thermodynamic from solid
[3] = Solubility in water; conditions: 25° C.
[4] = cited from earlier work

Compound: C[N+](C)(C)CCC[n+]1ccc(-c2cc[n+](CCC[N+](C)(C)C)cc2)cc1 [Compound 1, (3-trimethylammonio)propyl viologen tetrachloride]
- reduction potential vs. Ag/AgCl reference electrode ([1]; pH 7): −0.55 V
- reduction potential vs. RHE ([1]; pH 7): +0.07 V
- solubility ([2]; pH 7, water): 2000 mM
- solubility ([2]; water): 2000 mM

Compound: C[N+](C)(C)C[c-]1cccc1.F[B-](F)(F)F.[Fe+2].c1cc[cH-]c1 [Compound 3]
- water solubility [3]: ~400 mM
- reduction potential vs. RHE ([1]; pH 7, converted from the measured potential): +1.05 V
- reduction potential vs. Ag/AgCl reference electrode ([1]; pH 7, cyclic voltammetry): +0.43 V

Compound: C[N+](C)(C)CCC[c-]1cccc1.C[N+](C)(C)CCC[c-]1cccc1.[Cl-].[Cl-].[Fe+2] [Compound 2, bis((3-trimethylammonio)propyl)ferrocene dichloride]
- reduction potential vs. Ag/AgCl reference electrode ([1]; pH 7): +0.21 V
- reduction potential vs. RHE ([1]; pH 7): +0.83 V

Compound: C[n+]1ccc(-c2cc[n+](C)cc2)cc1 [MV dichloride, methyl viologen]
- solubility in water at pH 7 [4]: 3.0 M

Compound: C[N+](C)(C)CCCNC(=O)[c-]1cccc1.[Cl-].[Fe+2].c1cc[cH-]c1 [Compound 7, N-((3-trimethylammonio)propyl) ferrocenecarboxamide chloride]
- reduction potential higher than that of 2 ([1]; pH 7): ~240 mV
- reduction potential vs SHE ([1]; pH 7): +0.63 V
- reduction potential vs. RHE ([1]; pH 7): +1.04 V
